In ChEMBL document CHEMBL1135718, “CoMFA and CoMSIA 3D QSAR and docking studies on conformationally-restrained cinnamoyl HIV-1 integrase inhibitors: exploration of a binding mode at the active site” (J Med Chem, 2002):

biological target: Human immunodeficiency virus type 1 integrase (Human immunodeficiency virus 1, UniProt Q7ZJM1); test: Inhibitory activity against HIV-1 Integrase (HIV-1-IN)
Sequence (Q7ZJM1 whole entry): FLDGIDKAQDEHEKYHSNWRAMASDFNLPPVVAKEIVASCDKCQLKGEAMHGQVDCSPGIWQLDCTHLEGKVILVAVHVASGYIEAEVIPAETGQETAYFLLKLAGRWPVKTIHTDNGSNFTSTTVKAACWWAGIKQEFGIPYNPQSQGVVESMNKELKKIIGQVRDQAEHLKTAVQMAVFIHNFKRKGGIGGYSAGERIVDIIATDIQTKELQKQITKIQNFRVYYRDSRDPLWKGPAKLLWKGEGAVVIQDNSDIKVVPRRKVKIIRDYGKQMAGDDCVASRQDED

How did the IC50 turn out when `O=C(/C=C/c1ccc(O)c(O)c1)CCc1ccccc1` was run?
Its IC50 is 100 µM.

Which IC50 does the source give for `COc1ccc(/C=C/C(=O)/C=C(O)/C=C/c2ccc(OC)c(OC)c2)cc1OC` here?
The IC50 was 100 µM.

For `O=C(/C=C/c1ccc(O)cc1)/C=C/c1ccc(O)cc1`, which IC50 is on record?
Its IC50 is 100 µM.

`O=C(/C=C(O)/C=C/c1ccccc1)/C=C/c1ccccc1` was tested. Which IC50 did it give?
The IC50 was 100 µM.

`O=C(/C=C/c1cc(O)ccc1O)OCCc1ccccc1` was tested. Which IC50 did it give?
Its IC50 is 100 µM.

Which IC50 does the source give for `COc1ccc(/C=C/C(=O)OCCc2ccccc2)cc1OC` here?
Its IC50 is 100 µM.

`COOC(=O)c1cc2ccc(O)c(O)c2cn1` was tested. Which IC50 did it give?
Its IC50 is 14.1 µM.

`COOC(=O)c1cc2cc(O)c(O)cc2cn1` was tested. Which IC50 did it give?
The IC50 was 100 µM.

`O=C(NCc1ccccc1)c1cc2cc(O)c(O)cc2cn1` was tested. Which IC50 did it give?
Its IC50 is 100 µM.

For `O=C(/C=C/c1ccc(F)c(F)c1)OCCc1ccccc1`, which IC50 is on record?
Its IC50 is 100 µM.

For `COOC(=O)c1ccc2c(O)c(O)ccc2c1`, which IC50 is on record?
Its IC50 is 7.94 µM.

For `COc1ccc(/C=C/C(=O)/C=C/c2ccc(OC)c(OC)c2)cc1OC`, which IC50 is on record?
The IC50 was 100 µM.

Which IC50 does the source give for `COc1cc(/C=C/C(=O)OCCc2ccccc2)ccc1O` here?
The IC50 was 100 µM.

`O=C(/C=C/c1ccc(O)cc1)CC(=O)/C=C/c1ccc(O)cc1` [BISDEMETHOXYCURCUMIN] was tested. Which IC50 did it give?
The IC50 was 100 µM.

How did the IC50 turn out when `COc1cc(/C=C2\CCC/C(=C\c3ccc(O)c(OC)c3)C2=O)ccc1O` [CYCLOVALONE] was run?
The IC50 was 100 µM.

With `CCOC(=O)/C=C/c1ccc(O)c(O)c1` [ETHYL CAFFEATE] as the compound, how does the IC50 read?
The IC50 was 100 µM.

`O=C(/C=C/c1ccc(O)cc1)c1ccc(O)cc1O` [ISOLIQUIRITIGENIN] was tested. Which IC50 did it give?
Its IC50 is 100 µM.

Which IC50 does the source give for `COC(=O)/C=C/c1ccc(O)c(O)c1` [METHYLCAFFEATE] here?
The IC50 was 100 µM.
